Starred links: 1 amine or outer side, 2 acyl side, 3 side chain; linkers in the order of their positions; H or OH if unused. Positions of bridges follow the written chain, without caps; N, C: chain ends. Non-standard residues stand in square brackets, D forms with d. Residues, ends and D or L forms follow the SMILES beside them. *: point of attachment. X25 = CC(=O)N[C@H](CCC(=O)O)C(=O)Nc1cccc(C[C@@H](N[*:1])C(=O)[*:2])c1; X35 = CC(=O)N[C@@H](CCC(=O)Nc1cccc(C[C@H](N[*:1])C(=O)[*:2])c1)C(=O)O; X32 = CC(=O)N[C@H](CC(=O)O)C(=O)Nc1cccc(C[C@@H](N[*:1])C(=O)[*:2])c1; X33 = CC(=O)N[C@@H](CC(=O)Nc1cccc(C[C@H](N[*:1])C(=O)[*:2])c1)C(=O)O; X38 = O=C(Cc1cc(=O)[nH][nH]c1=O)Nc1cccc(C[C@H](N[*:1])C(=O)[*:2])c1; X30 = Cn1ncc(C(=O)Nc2cccc(C[C@H](N[*:1])C(=O)[*:2])c2)c1C#N; X9 = O=C(CC1NC(=O)NC1=O)Nc1cccc(C[C@H](N[*:1])C(=O)[*:2])c1; X34 = O=C(CCc1nc[nH]n1)Nc1cccc(C[C@H](N[*:1])C(=O)[*:2])c1; DOTA = O=C(O)CN1CCN(CC(=O)O)CCN(CC(=O)*)CCN(CC(=O)O)CC1; X15 = O=C(O)COCC(=O)Nc1cccc(C[C@H](N[*:1])C(=O)[*:2])c1; X7 = O=C([C@H](Cc1cccc(N[*:3])c1)N[*:1])[*:2]; Phe(4-NH2) = Nc1ccc(C[C@H](N)C(=O)O)cc1; mXylylene = c1cc(C[*:1])cc(C[*:2])c1; NH(4-Cl-benzyl) = Clc1ccc(CN*)cc1; X13 = O=C1NC2NC(=O)N(CC(=O)*)C2N1; X2 = O=C(CN1CCC(N[*:1])CC1)[*:2]; Suc = O=C(CCC(=O)[*:2])[*:1]
Tests used:
[1] = target: T1, human carbonic anhydrase IX (hCAIX-Fc) (Homo sapiens, UniProt Q16790); test: Surface plasmon resonance assay with hCAIX-Fc; type: binding; settings: 25° C.; for t1/2 category (activity): SPR dissociation half-life, hCAIX-Fc; for Kd: SPR, hCAIX-Fc captured, read-out: pKD category (activity) (converted)
T1 construct: purchased SinoBliological (Sino Biological) 10107-H02H

[2] = target: T2, CAIX-expressing human HT-29 colorectal cancer cells (Homo sapiens, UniProt Q16790); test: FACS binding assay (IC50 determination, competition with tracer 3BP-2776 or 3BP-4149); settings: FACS binding assay, HT-29 cells, competition with tracer 3BP-4149 (3 nM, Cy5-labeled), 4° C., 1 hour; read-out: pIC50 category (activity) (converted)
T2 construct: CAIX-expressing human HT-29 colorectal cancer cells; host or cells: HT-29 human colorectal cancer cells
How it was run: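 HT-29 cells in FACS buffer (PBS, 1% FCS) at 500.000 cells/ml were exposed to compounds competing with a labelled tracer, with biotinylated compounds detected by 1 μg/mL APC-streptavidin for 30 min on ice. APC/Cy5 median fluorescence was read by flow cytometry and IC50 derived by 4PL fit.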

SMILES: CC(C)C[C@@H]1NC(=O)[C@H](Cc2cccc(NC(=O)c3cnn(C)c3C#N)c2)NC(=O)[C@H](CC(=O)O)NC(=O)[C@H]2CCCN2C(=O)[C@H](CCC(=O)O)NC(=O)[C@@H](NC(=O)[C@H](Cc2ccc(O)cc2)NC(=O)[C@@H](NC(=O)CN2CCC(NC(=O)CN3CCN(CC(=O)O)CCN(CC(=O)O)CCN(CC(=O)O)CC3)CC2)C(C)C)CSCc2cccc(c2)CSC[C@@H](C(N)=O)NC(=O)[C@H](CO)NC(=O)[C@H](Cc2c[nH]c3ccccc23)NC(=O)[C@H]([C@@H](C)O)NC1=O [3BP-4305] ({DOTA}-[X2]VYCE[dP]D[X30]LTWSC-NH2; linker 4-13 via mXylylene)
- t1/2 category (activity) [1]: D (t1/2≤2.0 minutes)
- Kd [1]: 10 to 79.4 nM
- IC50 [2]: 10 to 79.4 nM

SMILES: CC(C)C[C@@H]1NC(=O)[C@H](Cc2cccc(NC(=O)Cc3cc(=O)[nH][nH]c3=O)c2)NC(=O)[C@H](CC(=O)O)NC(=O)[C@H]2CCCN2C(=O)[C@H](CCC(=O)O)NC(=O)[C@@H](NC(=O)[C@H](Cc2ccc(O)cc2)NC(=O)[C@@H](NC(=O)CN2CCC(NC(=O)CN3CCN(CC(=O)O)CCN(CC(=O)O)CCN(CC(=O)O)CC3)CC2)C(C)C)CSCc2cccc(c2)CSC[C@@H](C(N)=O)NC(=O)[C@H](CO)NC(=O)[C@H](Cc2c[nH]c3ccccc23)NC(=O)[C@H]([C@@H](C)O)NC1=O [3BP-4322] ({DOTA}-[X2]VYCE[dP]D[X38]LTWSC-NH2; linker 4-13 via mXylylene)
- t1/2 category (activity) [1]: B (t1/2 between 5.1 and 15.0 minutes)
- Kd [1]: < 10 nM
- IC50 [2]: 10 to 79.4 nM

SMILES: CC(C)C[C@@H]1NC(=O)[C@H](Cc2cccc(NC(=O)CCc3nc[nH]n3)c2)NC(=O)[C@H](CC(=O)O)NC(=O)[C@H]2CCCN2C(=O)[C@H](CCC(=O)O)NC(=O)[C@@H](NC(=O)[C@H](Cc2ccc(O)cc2)NC(=O)[C@@H](NC(=O)CN2CCC(NC(=O)CN3CCN(CC(=O)O)CCN(CC(=O)O)CCN(CC(=O)O)CC3)CC2)C(C)C)CSCc2cccc(c2)CSC[C@@H](C(N)=O)NC(=O)[C@H](CO)NC(=O)[C@H](Cc2c[nH]c3ccccc23)NC(=O)[C@H]([C@@H](C)O)NC1=O [3BP-4324] ({DOTA}-[X2]VYCE[dP]D[X34]LTWSC-NH2; linker 4-13 via mXylylene)
- t1/2 category (activity) [1]: A (t1/2>15.0 minutes)
- Kd [1]: < 10 nM
- IC50 [2]: 10 to 79.4 nM

SMILES: CC(C)C[C@@H]1NC(=O)[C@H](Cc2c[nH]c3ccccc23)NC(=O)[C@H](CCC(=O)NCc2ccc(Cl)cc2)NC(=O)[C@H]2CCCN2C(=O)[C@H](CCC(=O)O)NC(=O)[C@@H](NC(=O)[C@H](Cc2ccc(O)cc2)NC(=O)[C@@H](NC(=O)CN2CCC(NC(=O)CN3CCN(CC(=O)O)CCN(CC(=O)O)CCN(CC(=O)O)CC3)CC2)C(C)C)CSCc2cccc(c2)CSC[C@@H](C(N)=O)NC(=O)[C@H](CO)NC(=O)[C@H](Cc2c[nH]c3ccccc23)NC(=O)[C@H]([C@@H](C)O)NC1=O [3BP-4334] ({DOTA}-[X2]VYCE[dP]E(NH(4-Cl-benzyl))WLTWSC-NH2; linker 4-13 via mXylylene)
- t1/2 category (activity) [1]: A (t1/2>15.0 minutes)
- Kd [1]: < 10 nM
- IC50 [2]: 10 to 79.4 nM

SMILES: CC(C)C[C@@H]1NC(=O)[C@H](Cc2cccc(NC(=O)CN3C(=O)NC4NC(=O)NC43)c2)NC(=O)[C@H](CC(=O)O)NC(=O)[C@H]2CCCN2C(=O)[C@H](CCC(=O)O)NC(=O)[C@@H](NC(=O)[C@H](Cc2ccc(O)cc2)NC(=O)[C@@H](NC(=O)CN2CCC(NC(=O)CN3CCN(CC(=O)O)CCN(CC(=O)O)CCN(CC(=O)O)CC3)CC2)C(C)C)CSCc2cccc(c2)CSC[C@@H](C(N)=O)NC(=O)[C@H](CO)NC(=O)[C@H](Cc2c[nH]c3ccccc23)NC(=O)[C@H]([C@@H](C)O)NC1=O (stereo partly drawn) [3BP-4341] ({DOTA}-[X2]VYCE[dP]D[X7](X13)LTWSC-NH2; linker 4-13 via mXylylene)
- t1/2 category (activity) [1]: C (t1/2 between 2.1 and 5.0 minutes)
- Kd [1]: < 10 nM
- IC50 [2]: 10 to 79.4 nM

SMILES: CC(C)C[C@@H]1NC(=O)[C@H](Cc2ccc(NC(=O)CCC(=O)O)cc2)NC(=O)[C@H](CC(=O)O)NC(=O)[C@H]2CCCN2C(=O)[C@H](CCC(=O)O)NC(=O)[C@@H](NC(=O)[C@H](Cc2ccc(O)cc2)NC(=O)[C@@H](NC(=O)CN2CCC(NC(=O)CN3CCN(CC(=O)O)CCN(CC(=O)O)CCN(CC(=O)O)CC3)CC2)C(C)C)CSCc2cccc(c2)CSC[C@@H](C(N)=O)NC(=O)[C@H](CO)NC(=O)[C@H](Cc2c[nH]c3ccccc23)NC(=O)[C@H]([C@@H](C)O)NC1=O [3BP-4356] ({DOTA}-[X2]VYCE[dP]D[Phe(4-NH2)](Suc)LTWSC-NH2; linker 4-13 via mXylylene)
- t1/2 category (activity) [1]: D (t1/2≤2.0 minutes)
- Kd [1]: 10 to 79.4 nM
- IC50 [2]: 10 to 79.4 nM

SMILES: CC(=O)N[C@@H](CCC(=O)Nc1cccc(C[C@@H]2NC(=O)[C@H](CC(=O)O)NC(=O)[C@H]3CCCN3C(=O)[C@H](CCC(=O)O)NC(=O)[C@@H](NC(=O)[C@H](Cc3ccc(O)cc3)NC(=O)[C@@H](NC(=O)CN3CCC(NC(=O)CN4CCN(CC(=O)O)CCN(CC(=O)O)CCN(CC(=O)O)CC4)CC3)C(C)C)CSCc3cccc(c3)CSC[C@@H](C(N)=O)NC(=O)[C@H](CO)NC(=O)[C@H](Cc3c[nH]c4ccccc34)NC(=O)[C@H]([C@@H](C)O)NC(=O)[C@H](CC(C)C)NC2=O)c1)C(=O)O [3BP-4361] ({DOTA}-[X2]VYCE[dP]D[X35]LTWSC-NH2; linker 4-13 via mXylylene)
- t1/2 category (activity) [1]: A (t1/2>15.0 minutes)
- Kd [1]: < 10 nM
- IC50 [2]: 10 to 79.4 nM

SMILES: CC(=O)N[C@H](CCC(=O)O)C(=O)Nc1cccc(C[C@H]2NC(=O)[C@H](CC(=O)O)NC(=O)[C@H]3CCCN3C(=O)[C@H](CCC(=O)O)NC(=O)[C@@H](NC(=O)[C@H](Cc3ccc(O)cc3)NC(=O)[C@@H](NC(=O)CN3CCC(NC(=O)CN4CCN(CC(=O)O)CCN(CC(=O)O)CCN(CC(=O)O)CC4)CC3)C(C)C)CSCc3cccc(c3)CSC[C@@H](C(N)=O)NC(=O)[C@H](CO)NC(=O)[C@H](Cc3c[nH]c4ccccc34)NC(=O)[C@H]([C@@H](C)O)NC(=O)[C@H](CC(C)C)NC2=O)c1 [3BP-4362] ({DOTA}-[X2]VYCE[dP]D[X25]LTWSC-NH2; linker 4-13 via mXylylene)
- t1/2 category (activity) [1]: B (t1/2 between 5.1 and 15.0 minutes)
- Kd [1]: < 10 nM
- IC50 [2]: 10 to 79.4 nM

SMILES: CC(=O)N[C@@H](CC(=O)Nc1cccc(C[C@@H]2NC(=O)[C@H](CC(=O)O)NC(=O)[C@H]3CCCN3C(=O)[C@H](CCC(=O)O)NC(=O)[C@@H](NC(=O)[C@H](Cc3ccc(O)cc3)NC(=O)[C@@H](NC(=O)CN3CCC(NC(=O)CN4CCN(CC(=O)O)CCN(CC(=O)O)CCN(CC(=O)O)CC4)CC3)C(C)C)CSCc3cccc(c3)CSC[C@@H](C(N)=O)NC(=O)[C@H](CO)NC(=O)[C@H](Cc3c[nH]c4ccccc34)NC(=O)[C@H]([C@@H](C)O)NC(=O)[C@H](CC(C)C)NC2=O)c1)C(=O)O [3BP-4363] ({DOTA}-[X2]VYCE[dP]D[X33]LTWSC-NH2; linker 4-13 via mXylylene)
- t1/2 category (activity) [1]: B (t1/2 between 5.1 and 15.0 minutes)
- Kd [1]: < 10 nM
- IC50 [2]: 10 to 79.4 nM

SMILES: CC(=O)N[C@H](CC(=O)O)C(=O)Nc1cccc(C[C@H]2NC(=O)[C@H](CC(=O)O)NC(=O)[C@H]3CCCN3C(=O)[C@H](CCC(=O)O)NC(=O)[C@@H](NC(=O)[C@H](Cc3ccc(O)cc3)NC(=O)[C@@H](NC(=O)CN3CCC(NC(=O)CN4CCN(CC(=O)O)CCN(CC(=O)O)CCN(CC(=O)O)CC4)CC3)C(C)C)CSCc3cccc(c3)CSC[C@@H](C(N)=O)NC(=O)[C@H](CO)NC(=O)[C@H](Cc3c[nH]c4ccccc34)NC(=O)[C@H]([C@@H](C)O)NC(=O)[C@H](CC(C)C)NC2=O)c1 [3BP-4364] ({DOTA}-[X2]VYCE[dP]D[X32]LTWSC-NH2; linker 4-13 via mXylylene)
- t1/2 category (activity) [1]: B (t1/2 between 5.1 and 15.0 minutes)
- Kd [1]: < 10 nM
- IC50 [2]: 10 to 79.4 nM

SMILES: CC(C)C[C@@H]1NC(=O)[C@H](Cc2cccc(NC(=O)COCC(=O)O)c2)NC(=O)[C@H](CC(=O)O)NC(=O)[C@H]2CCCN2C(=O)[C@H](CCC(=O)O)NC(=O)[C@@H](NC(=O)[C@H](Cc2ccc(O)cc2)NC(=O)[C@@H](NC(=O)CN2CCC(NC(=O)CN3CCN(CC(=O)O)CCN(CC(=O)O)CCN(CC(=O)O)CC3)CC2)C(C)C)CSCc2cccc(c2)CSC[C@@H](C(N)=O)NC(=O)[C@H](CO)NC(=O)[C@H](Cc2c[nH]c3ccccc23)NC(=O)[C@H]([C@@H](C)O)NC1=O [3BP-4368] ({DOTA}-[X2]VYCE[dP]D[X15]LTWSC-NH2; linker 4-13 via mXylylene)
- t1/2 category (activity) [1]: C (t1/2 between 2.1 and 5.0 minutes)
- Kd [1]: < 10 nM
- IC50 [2]: 10 to 79.4 nM

SMILES: CC(C)C[C@@H]1NC(=O)[C@H](Cc2cccc(NC(=O)CC3NC(=O)NC3=O)c2)NC(=O)[C@H](CC(=O)O)NC(=O)[C@H]2CCCN2C(=O)[C@H](CCC(=O)O)NC(=O)[C@@H](NC(=O)[C@H](Cc2ccc(O)cc2)NC(=O)[C@@H](NC(=O)CN2CCC(NC(=O)CN3CCN(CC(=O)O)CCN(CC(=O)O)CCN(CC(=O)O)CC3)CC2)C(C)C)CSCc2cccc(c2)CSC[C@@H](C(N)=O)NC(=O)[C@H](CO)NC(=O)[C@H](Cc2c[nH]c3ccccc23)NC(=O)[C@H]([C@@H](C)O)NC1=O (stereo partly drawn) [3BP-4371] ({DOTA}-[X2]VYCE[dP]D[X9]LTWSC-NH2; linker 4-13 via mXylylene)
- t1/2 category (activity) [1]: C (t1/2 between 2.1 and 5.0 minutes)
- Kd [1]: < 10 nM
- IC50 [2]: 10 to 79.4 nM

Source: patent US20250339569A1, “CARBONIC ANHYDRASE IX LIGANDS” (priority 2021, published 2025)
